What follows are compounds tested on JAK1-dependent STAT6 phosphorylation downstream of IL-13 stimulation in TF-1 human erythroleukemia cells (assay: cells). Conditions: TF-1, read-out: IL-13-pSTAT6 IC50.

| IC50 [nM] | SMILES |
| --- | --- |
| 40.4 | CN(Cc1ccc(N(C)C)cc1)C(=O)c1ccc(Nc2nc3c(C4=CCN(C(=O)CCC(F)(F)F)CC4)cccn3n2)cc1 [Example 2-406, N-[[4-(dimethylamino)phenyl]-methyl]-N-methyl-4-[[8-[1-(4,4,4-trifluorobutanoyl)-3,6-dihydro-2H-pyridin-4-yl]-[1,2,4]triazolo[1,5-a]pyridin-2-yl]amino]benzamide] |
| 4.7 | CN(Cc1ccncc1)C(=O)c1ccc(Nc2nc3c(C4=CCN(C(=O)CCC(F)(F)F)CC4)cccn3n2)cc1 [Example 2-407, N-methyl-N-(4-pyridylmethyl)-4-[[8-[1-(4,4,4-trifluorobutanoyl)-3,6-dihydro-2H-pyridin-4-yl]-[1,2,4]triazolo[1,5-a]pyridin-2-yl]amino]benzamide] |
| 188 | CN1CCC(N(C)C(=O)c2ccc(Nc3nc4c(C5=CCN(C(=O)c6ccccc6)CC5)cccn4n3)cc2)CC1 [Example 2-408, 4-[[8-(1-benzoyl-3,6-dihydro-2H-pyridin-4-yl)-[1,2,4]triazolo[1,5-a]pyridin-2-yl]amino]-N-methyl-N-(1-methyl-4-piperidyl)benzamide] |
| 124 | CN1CCC(N(C)C(=O)c2ccc(Nc3nc4c(C5=CCN(C(=O)C6CC6)CC5)cccn4n3)cc2)CC1 [Example 2-409, 4-[[8-[1-(cyclopropanecarbonyl)-3,6-dihydro-2H-pyridin-4-yl]-[1,2,4]triazolo[1,5-a]pyridin-2-yl]amino]-N-methyl-N-(1-methyl-4-piperidyl)benzamide] |
| 130 | CC(C)C(=O)N1CC=C(c2cccn3nc(Nc4ccc(C(=O)N(C)C5CCN(C)CC5)cc4)nc23)CC1 [Example 2-410, N-methyl-N-(1-methyl-4-piperidyl)-4-[[8-[1-(2-methylpropanoyl)-3,6-dihydro-2H-pyridin-4-yl]-[1,2,4]triazolo[1,5-a]pyridin-2-yl]amino]benzamide] |
| 348 | COCCC(=O)N1CC=C(c2cccn3nc(Nc4ccc(C(=O)N(C)C5CCN(C)CC5)cc4)nc23)CC1 [Example 2-411, 4-[[8-[1-(3-methoxypropanoyl)-3,6-dihydro-2H-pyridin-4-yl]-[1,2,4]triazolo[1,5-a]pyridin-2-yl]amino]-N-methyl-N-(1-methyl-4-piperidyl)benzamide] |
| 26.5 | CC(C)CCC(=O)N1CC=C(c2cccn3nc(Nc4ccc(C(=O)N(C)C5CCN(C)CC5)cc4)nc23)CC1 [Example 2-412, N-methyl-4-[[8-[1-(4-methylpentanoyl)-3,6-dihydro-2H-pyridin-4-yl]-[1,2,4]triazolo[1,5-a]pyridin-2-yl]amino]-N-(1-methyl-4-piperidyl)benzamide] |
| 1260 | CN1CCC(N(C)C(=O)c2ccc(Nc3nc4c(C5=CCN(C(=O)N6CCOCC6)CC5)cccn4n3)cc2)CC1 [Example 2-413, N-methyl-N-(1-methyl-4-piperidyl)-4-[[8-[1-(morpholine-4-carbonyl)-3,6-dihydro-2H-pyridin-4-yl]-[1,2,4]triazolo[1,5-a]pyridin-2-yl]amino]benzamide] |
| 13 | CCOC(=O)N1CC=C(c2cccn3nc(Nc4ccc(C(=O)NCC5CCCCN5C)cc4)nc23)CC1 (stereo not shown) [Example 2-415, ethyl 4-[2-[4-[(1-methyl-2-piperidyl)methylcarbamoyl]anilino]-[1,2,4]triazolo[1,5-a]pyridin-8-yl]-3,6-dihydro-2H-pyridine-1-carboxylate] |
| 598 | CCOC(=O)N1CC=C(c2cccn3nc(Nc4ccc(C(=O)NCCC5CCCNC5)cc4)nc23)CC1 (stereo not shown) [Example 2-416, ethyl 4-[2-[4-[2-(3-piperidyl)ethylcarbamoyl]anilino]-[1,2,4]triazolo[1,5-a]pyridin-8-yl]-3,6-dihydro-2H-pyridine-1-carboxylate] |
| 24.1 | CCOC(=O)N1CC=C(c2cccn3nc(Nc4ccc(C(=O)N5CC(C(=O)N6CCN(C)CC6)C5)cc4)nc23)CC1 [Example 2-421, ethyl 4-[2-[4-[3-(4-methylpiperazine-1-carbonyl)azetidine-1-carbonyl]anilino]-[1,2,4]triazolo[1,5-a]pyridin-8-yl]-3,6-dihydro-2H-pyridine-1-carboxylate] |
| 14 | CCOC(=O)N1CC=C(c2cccn3nc(Nc4ccc(C(=O)NCCc5cccnc5)cc4)nc23)CC1 [Example 2-422, ethyl 4-[2-[4-[2-(3-pyridyl)ethylcarbamoyl]anilino]-[1,2,4]triazolo[1,5-a]pyridin-8-yl]-3,6-dihydro-2H-pyridine-1-carboxylate] |
| 17.3 | CCOC(=O)N1CC=C(c2cccn3nc(Nc4ccc(C(=O)NCCc5ccccn5)cc4)nc23)CC1 [Example 2-423, ethyl 4-[2-[4-[2-(2-pyridyl)ethylcarbamoyl]anilino]-[1,2,4]triazolo[1,5-a]pyridin-8-yl]-3,6-dihydro-2H-pyridine-1-carboxylate] |
| 226 | CCOC(=O)N1CC=C(c2cccn3nc(Nc4ccc(C(=O)NCC5CCNCC5)cc4)nc23)CC1 [Example 2-425, ethyl 4-[2-[4-(4-piperidylmethylcarbamoyl)anilino]-[1,2,4]triazolo[1,5-a]pyridin-8-yl]-3,6-dihydro-2H-pyridine-1-carboxylate] |
| 51 | CCOC(=O)N1CC=C(c2cccn3nc(Nc4ccc(C(=O)N5CCC(Cc6cccnc6)C5)cc4)nc23)CC1 (stereo not shown) [Example 2-426, ethyl 4-[2-[4-[3-(3-pyridylmethyl)pyrrolidine-1-carbonyl]anilino]-[1,2,4]triazolo[1,5-a]pyridin-8-yl]-3,6-dihydro-2H-pyridine-1-carboxylate] |
| 215 | CCOC(=O)N1CC=C(c2cccn3nc(Nc4ccc(C(=O)NCC5CCCNC5)cc4)nc23)CC1 (stereo not shown) [Example 2-427, ethyl 4-[2-[4-(3-piperidylmethylcarbamoyl)anilino]-[1,2,4]triazolo[1,5-a]pyridin-8-yl]-3,6-dihydro-2H-pyridine-1-carboxylate] |
| 463 | CCOC(=O)N1CC=C(c2cccn3nc(Nc4ccc(C(=O)NCCC5CCCCN5)cc4)nc23)CC1 (stereo not shown) [Example 2-428, ethyl 4-[2-[4-[2-(2-piperidyl)ethylcarbamoyl]anilino]-[1,2,4]triazolo[1,5-a]pyridin-8-yl]-3,6-dihydro-2H-pyridine-1-carboxylate] |
| 27.4 | CCOC(=O)N1CC=C(c2cccn3nc(Nc4ccc(C(=O)N5CCCN(c6ccncc6)CC5)cc4)nc23)CC1 [Example 2-429, ethyl 4-[2-[4-[4-(4-pyridyl)-1,4-diazepane-1-carbonyl]anilino]-[1,2,4]triazolo[1,5-a]pyridin-8-yl]-3,6-dihydro-2H-pyridine-1-carboxylate] |
| 43 | CCOC(=O)N1CC=C(c2cccn3nc(Nc4ccc(C(=O)N5CC6(CN(C(C)=O)C6)C5)cc4)nc23)CC1 [Example 2-432, ethyl 4-[2-[4-(6-acetyl-2,6-diazaspiro[3.3]heptane-2-carbonyl)anilino]-[1,2,4]triazolo[1,5-a]pyridin-8-yl]-3,6-dihydro-2H-pyridine-1-carboxylate] |
| 13.2 | CCOC(=O)N1CC=C(c2cccn3nc(Nc4ccc(C(=O)NC5CCN(C)C5)cc4)nc23)CC1 (stereo not shown) [Example 2-433, ethyl 4-[2-[4-[(1-methylpyrrolidin-3-yl)carbamoyl]anilino]-[1,2,4]triazolo[1,5-a]pyridin-8-yl]-3,6-dihydro-2H-pyridine-1-carboxylate] |
| 232 | CCOC(=O)N1CC=C(c2cccn3nc(Nc4ccc(C(=O)N[C@H]5[C@@H]6CNC[C@@H]65)cc4)nc23)CC1 [Example 2-434, ethyl 4-[2-[4-[[(1S,5R)-3-azabicyclo[3.10]hexan-6-yl]carbamoyl]anilino]-[1,2,4]triazolo[1,5-a]pyridin-8-yl]-3,6-dihydro-2H-pyridine-1-carboxylate] |
| 33.7 | CCOC(=O)N1CC=C(c2cccn3nc(Nc4ccc(C(=O)N5CC6(CCCCN6)C5)cc4)nc23)CC1 [Example 2-437, ethyl 4-[2-[4-(2,5-diazaspiro[3.5]nonane-2-carbonyl)anilino]-[1,2,4]triazolo[1,5-a]pyridin-8-yl]-3,6-dihydro-2H-pyridine-1-carboxylate] |
| 156 | O=C(CCC(F)(F)F)N1CC=C(c2cccn3nc(Nc4ccc(C(=O)N5CCCC56CCNC6)cc4)nc23)CC1 (stereo not shown) [Example 2-440, 1-[4-[2-[4-(1,7-diazaspiro[4.4]nonane-1-carbonyl)anilino]-[1,2,4]triazolo[1,5-a]pyridin-8-yl]-3,6-dihydro-2H-pyridin-1-yl]-4,4,4-trifluoro-butan-1-one] |
| 82.4 | CN(CCN)C(=O)c1ccc(Nc2nc3c(C4=CCN(C(=O)CCC(F)(F)F)CC4)cccn3n2)cc1 [Example 2-441, N-(2-aminoethyl)-N-methyl-4-[[8-[1-(4,4,4-trifluorobutanoyl)-3,6-dihydro-2H-pyridin-4-yl]-[1,2,4]triazolo[1,5-a]pyridin-2-yl]amino]benzamide] |
| 72.3 | O=C(CCC(F)(F)F)N1CC=C(c2cccn3nc(Nc4ccc(C(=O)N5CCCC6(CCCNC6)C5)cc4)nc23)CC1 (stereo not shown) [Example 2-443, 1-[4-[2-[4-(2,8-diazaspiro[5.5]undecane-2-carbonyl)anilino]-[1,2,4]triazolo[1,5-a]pyridin-8-yl]-3,6-dihydro-2H-pyridin-1-yl]-4,4,4-trifluoro-butan-1-one] |
| 154 | O=C(NCC1CCNC1)c1ccc(Nc2nc3c(C4=CCN(C(=O)CCC(F)(F)F)CC4)cccn3n2)cc1 (stereo not shown) [Example 2-444, N-(pyrrolidin-3-ylmethyl)-4-[[8-[1-(4,4,4-trifluorobutanoyl)-3,6-dihydro-2H-pyridin-4-yl]-[1,2,4]triazolo[1,5-a]pyridin-2-yl]amino]benzamide] |
| 456 | O=C(NC1CCNCC1)c1ccc(Nc2nc3c(C4=CCN(C(=O)CCC(F)(F)F)CC4)cccn3n2)cc1 [Example 2-445, N-(4-piperidyl)-4-[[8-[1-(4,4,4-trifluorobutanoyl)-3,6-dihydro-2H-pyridin-4-yl]-[1,2,4]triazolo[1,5-a]pyridin-2-yl]amino]benzamide] |
| 208 | NCC1CCN(C(=O)c2ccc(Nc3nc4c(C5=CCN(C(=O)CCC(F)(F)F)CC5)cccn4n3)cc2)CC1 [Example 2-446, 1-[4-[2-[4-[4-(aminomethyl)piperidine-1-carbonyl]anilino]-[1,2,4]triazolo[1,5-a]pyridin-8-yl]-3,6-dihydro-2H-pyridin-1-yl]-4,4,4-trifluoro-butan-1-one] |

— patent publication US9873709B2 (priority 2013, dated 2018)
